Test results reported in patent US8580809B2, “Filamin A-binding anti-inflammatory analgesic” (Pain Therapeutics, Inc., priority 2009, dated 2013).

Biological target: T1, mu opiate receptor (MOR) (Rattus norvegicus, UniProt P33535)
T1 construct: from tissue; host or cells: rat striatal membrane preparation
Assay: MOR agonist activity using [35S]GTPγS binding assay in striatal membranes
Format: biochemical
Details: for MOR agonist activity, [35S]GTPγS binding to Gαo, FLNA-binding compound as agonist 0.1 μM: 0.1 μM compound; for MOR agonist activity, [35S]GTPγS binding to Gαo, FLNA-binding compound as agonist 0.1 μM / MOR agonist activity, [35S]GTPγS binding to Gαo, FLNA-binding compound as agonist 1 μM: striatal membranes; for MOR agonist activity, [35S]GTPγS binding to Gαo, 1 μM + BFNA: 1 μM compound + 1 μM β-funaltrexamine; for MOR agonist activity, [35S]GTPγS binding to Gαo, FLNA-binding compound as agonist 1 μM: 1 μM compound
Protocol: To assess the mu opiate receptor (MOR) agonist activity of positive compounds from the FLNA screening, compounds were tested in a [^35S]GTPγS binding assay using striatal membranes.
Striatal tissue was homogenized in 10 volumes of ice cold 25 mM HEPES buffer, pH 7.4, which contained 1 mM EGTA, 100 mM sucrose, 50 μg/ml leupeptin, 0.04 mM PMSF, 2 μg/ml soybean trypsin inhibitor and 0.2% 2-mercaptoethanol. The homogenates were centrifuged at 800×g for 5 minutes and the supernatants were centrifuged at 49,000×g for 20 minutes.
The resultant striatal membrane preparation (200 μg) was admixed and maintained (incubated) at 30° C. for 5 minutes in reaction buffer as above that additionally contained 1 mM MgCl2 and 0.5 nM [^35S]GTPγS (0.1 μCi/assay, PerkinElmer Life and Analytical Sciences) in a total volume of 250 μl and continued for 5 minutes in the absence or presence of 0.1-10 μM of an assayed compound of interest. The reaction was terminated by dilution with 750 μl of ice-cold reaction buffer that contained 20 mM MgCl2 and 1 mM EGTA and immediate centrifugation at 16,000×g for 5 minutes.
The resulting pellet was solubilized by sonicating for 10 seconds in 0.5 ml of immunoprecipitation buffer containing 0.5% digitonin, 0.2% sodium cholate and 0.5% NP-40. Normal rabbit serum (1 μl) was added to 1 ml of lysate and incubated at 25° C. for 30 minutes. Nonspecific immune complexes were removed by incubation with 25 μl of protein A/G-conjugated agarose beads at 25° C. for 30 minutes followed by centrifugation at 5,000×g at 4° C. for 5 minutes. The supernatant was divided and separately incubated at 25° C. for 30 minutes with antibodies raised against Gαo proteins (1:1,000 dilutions).
The immunocomplexes so formed were collected by incubation at 25° C. for 30 minutes with 40 μl of agarose-conjugated protein A/G beads and centrifugation at 5,000×g at 4° C. for 5 minutes. The pellet was washed and suspended in buffer containing 50 mM Tris-HCl, pH 8.0, and 1% NP-40. The radioactivity in the suspension was determined by liquid scintillation spectrometry. […] DAMGO (H-Tyr-D-Ala-Gly-N-MePhe-Gly-OH; 1 or 10 μM) was used as a positive control.

T1 sequence (P33535 whole entry): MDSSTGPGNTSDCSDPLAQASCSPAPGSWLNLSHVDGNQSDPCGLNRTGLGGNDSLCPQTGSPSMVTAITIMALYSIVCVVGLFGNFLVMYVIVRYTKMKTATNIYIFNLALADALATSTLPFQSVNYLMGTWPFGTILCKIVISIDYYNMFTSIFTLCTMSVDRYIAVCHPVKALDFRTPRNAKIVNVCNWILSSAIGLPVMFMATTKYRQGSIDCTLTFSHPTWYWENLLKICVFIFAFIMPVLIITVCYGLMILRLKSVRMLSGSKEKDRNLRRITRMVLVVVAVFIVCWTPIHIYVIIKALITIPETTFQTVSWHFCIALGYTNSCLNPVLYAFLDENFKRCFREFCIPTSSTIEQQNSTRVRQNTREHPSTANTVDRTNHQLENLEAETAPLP

For O=S(=O)(c1cccs1)N1CCC2(CC1)OCCN2S(=O)(=O)c1cccs1 [Compound C0141M], the “MOR agonist activity, [35S]GTPγS binding to Gαo, FLNA-binding compound as agonist 0.1 μM” value (from here on “MOR agonist activity … as agonist 0.1 μM”) was 161.5%, the “MOR agonist activity, [35S]GTPγS binding to Gαo, 1 μM + BFNA” value (shortened to “MOR agonist activity … 1 μM + BFNA”) was 47.9% and the “MOR agonist activity, [35S]GTPγS binding to Gαo, FLNA-binding compound as agonist 1 μM” value (from here on “MOR agonist activity … as agonist 1 μM”) was 213.9%.

With Cc1ccc(S(=O)(=O)N2CCC3(CC2)OCCN3S(=O)(=O)c2ccc(C)cc2)cc1 [Compound C0001] the “MOR agonist activity … as agonist 0.1 μM” value was 129.3%, the “MOR agonist activity … 1 μM + BFNA” value was 33.9% and the “MOR agonist activity … as agonist 1 μM” value was 184.3%.

For COc1cccc(S(=O)(=O)N2CCC3(CC2)OCCN3S(=O)(=O)c2cccc(OC)c2)c1 [Compound C0002], the “MOR agonist activity … as agonist 0.1 μM” value was 88.4%, the “MOR agonist activity … 1 μM + BFNA” value was 3.9% and the “MOR agonist activity … as agonist 1 μM” value was 93.8%.

With C[C@@H](NC(=O)[C@@H](N)Cc1ccc(O)cc1)C(=O)NCC(=O)N(C)[C@@H](Cc1ccccc1)C(=O)NCCO [DAMGO, reference compound] the “MOR agonist activity … as agonist 0.1 μM” value was 168.5%, the “MOR agonist activity … 1 μM + BFNA” value was 53.2% and the “MOR agonist activity … as agonist 1 μM” value was 266.1%.

For O=S(=O)(c1ccc(C(F)(F)F)cc1)N1CCC2(CC1)OCCN2S(=O)(=O)c1ccc(C(F)(F)F)cc1 [Compound C0012], the “MOR agonist activity … as agonist 0.1 μM” value was 96.8%, the “MOR agonist activity … 1 μM + BFNA” value was 184.4% and the “MOR agonist activity … as agonist 1 μM” value was 224.8%.

CNc1ccc(S(=O)(=O)N2CCC3(CC2)OCCN3S(=O)(=O)c2ccc(NC)cc2)cc1 [Compound C0024] was tested, and the “MOR agonist activity … as agonist 0.1 μM” value was 178.4%, the “MOR agonist activity … 1 μM + BFNA” value was 59.3% and the “MOR agonist activity … as agonist 1 μM” value was 229.6%.

O=S(=O)(c1csc2ccccc12)N1CCC2(CC1)OCCN2S(=O)(=O)c1csc2ccccc12 [Compound C0150M] was tested, and the “MOR agonist activity … as agonist 0.1 μM” value was 167.1%, the “MOR agonist activity … 1 μM + BFNA” value was 158.1% and the “MOR agonist activity … as agonist 1 μM” value was 423.1%.

With O=S(=O)(c1ccc(Br)cc1F)N1CCC2(CC1)OCCN2S(=O)(=O)c1ccc(Br)cc1F [Compound C0078] the “MOR agonist activity … as agonist 0.1 μM” value was 138.1%, the “MOR agonist activity … 1 μM + BFNA” value was 170.7% and the “MOR agonist activity … as agonist 1 μM” value was 236.6%.

COc1ccc(S(=O)(=O)N2CCC3(OCCN3S(=O)(=O)c3ccc(OC)cc3)C3CCCCC32)cc1 (stereo not drawn) [Compound C0144M] was tested, and the “MOR agonist activity … as agonist 0.1 μM” value was 186.3%, the “MOR agonist activity … 1 μM + BFNA” value was 125.9% and the “MOR agonist activity … as agonist 1 μM” value was 295.9%.

In the case of CC(=O)Nc1ccc(S(=O)(=O)N2CCC3(CC2)OCCN3S(=O)(=O)c2ccc(NC(C)=O)cc2)cc1 [Compound C0013], the “MOR agonist activity … as agonist 0.1 μM” value is reported as 156.6%, the “MOR agonist activity … 1 μM + BFNA” value is reported as 39.6% and the “MOR agonist activity … as agonist 1 μM” value is reported as 301.2%.

With O=S(=O)(c1ccc(Br)cc1C(F)(F)F)N1CCC2(CC1)OCCN2S(=O)(=O)c1ccc(Br)cc1C(F)(F)F [Compound C0068] the “MOR agonist activity … as agonist 0.1 μM” value was 107.2%, the “MOR agonist activity … 1 μM + BFNA” value was 165.9% and the “MOR agonist activity … as agonist 1 μM” value was 263.1%.

CCCCc1ccc(S(=O)(=O)N2CCC3(CC2)OCCN3S(=O)(=O)c2ccc(CCCC)cc2)cc1 [Compound C0030] was tested, and the “MOR agonist activity … as agonist 0.1 μM” value was 150.3%, the “MOR agonist activity … 1 μM + BFNA” value was 95.0% and the “MOR agonist activity … as agonist 1 μM” value was 226.8%.

For O=S(=O)(c1ccc(F)cc1)N1CCC2(CC1)OCCN2S(=O)(=O)c1ccc(F)cc1 [Compound C0029], the “MOR agonist activity … as agonist 0.1 μM” value was 175.4%, the “MOR agonist activity … 1 μM + BFNA” value was 16.6% and the “MOR agonist activity … as agonist 1 μM” value was 308.8%.

With NS(=O)(=O)c1ccc(S(=O)(=O)N2CCC3(CC2)OCCN3S(=O)(=O)c2ccc(S(N)(=O)=O)cc2)cc1 [Compound C0034] the “MOR agonist activity … as agonist 0.1 μM” value was 103.6%, the “MOR agonist activity … 1 μM + BFNA” value was 80.1% and the “MOR agonist activity … as agonist 1 μM” value was 167.9%.

For COc1ccc(C(=O)N2CCC3(CC2)OCCN3S(=O)(=O)c2ccc(OC)cc2)cc1 [Compound C0018], the “MOR agonist activity … as agonist 0.1 μM” value was 195.5%, the “MOR agonist activity … 1 μM + BFNA” value was 106.5% and the “MOR agonist activity … as agonist 1 μM” value was 247.7%.

In the case of CC(=O)c1ccc(S(=O)(=O)N2CCC3(CC2)NC(=O)C(Cc2cnc[nH]2)N3S(=O)(=O)c2ccc(C(C)=O)cc2)cc1 (stereo not drawn) [Compound C0084M], the “MOR agonist activity … as agonist 0.1 μM” value is reported as 163.1%, the “MOR agonist activity … 1 μM + BFNA” value is reported as 133.2% and the “MOR agonist activity … as agonist 1 μM” value is reported as 255.5%.

With COc1ccccc1S(=O)(=O)N1CCC2(CC1)OCCN2S(=O)(=O)c1ccccc1OC [Compound C0003] the “MOR agonist activity … as agonist 0.1 μM” value was 162.3%, the “MOR agonist activity … 1 μM + BFNA” value was 107.7% and the “MOR agonist activity … as agonist 1 μM” value was 215.9%.

CC(=O)c1ccc(S(=O)(=O)N2CCC3(CC2)OC(CN(C)C)CN3S(=O)(=O)c2ccc(C(C)=O)cc2)cc1 (stereo not drawn) [Compound C0065] was tested, and the “MOR agonist activity … as agonist 0.1 μM” value was 198.3%, the “MOR agonist activity … 1 μM + BFNA” value was 47.7% and the “MOR agonist activity … as agonist 1 μM” value was 279.5%.

With O=S(=O)(c1ccc(Br)cc1Br)N1CCC2(CC1)OCCN2S(=O)(=O)c1ccc(Br)cc1Br [Compound C0070] the “MOR agonist activity … as agonist 0.1 μM” value was 165.6%, the “MOR agonist activity … 1 μM + BFNA” value was 114.2% and the “MOR agonist activity … as agonist 1 μM” value was 210.8%.

In the case of COc1cc(S(=O)(=O)N2CCC3(CC2)OCCN3S(=O)(=O)c2cc(OC)c(OC)c(OC)c2)cc(OC)c1OC [Compound C0062], the “MOR agonist activity … as agonist 0.1 μM” value is reported as 127.8%, the “MOR agonist activity … 1 μM + BFNA” value is reported as 59.8% and the “MOR agonist activity … as agonist 1 μM” value is reported as 310.5%.

In the case of N#Cc1ccccc1S(=O)(=O)N1CCC2(CC1)OCCN2S(=O)(=O)c1ccccc1C#N [Compound C0004], the “MOR agonist activity … as agonist 0.1 μM” value is reported as 122.0%, the “MOR agonist activity … 1 μM + BFNA” value is reported as 65.8% and the “MOR agonist activity … as agonist 1 μM” value is reported as 228.4%.
